Assay results taken from US6458585B1, “Cytokine-free culture of dendritic cells” (Nexell Therapeutics Inc., priority 1996, dated 2002).

Legend:
Type in all cases: cell-based, human
adherent PBMNC [1] = assay: Cell counts and viability of plastic adherent cells cultured with non-cytokine additives in polystyrene plates; set-up: % VIABLE: concentration or dose not given beside the values; details: for % VIABLE: propidium iodide
Description: Viability Determination: Prior to acquisition, 5 ul propidium iodide (PI) was added to each tube for use as a viability check. The cells were vortexed and acquired within 10 min of PI addition.
(§1) Enrichment and Culture of Adherent Cells Using Polystyrene Tissue Culture Plates: PBMNC were resuspended in culture media (X-VIVO 15™+10% autologous serum) at 2×10^6 cells/ml. Cells were placed into 48 well polystyrene tissue culture plates […] and incubated for 2 hours in a 5% CO2, ambient O2, 37° C. humidified incubator. Non-adherent cells were removed from the plates then wells were rinsed with X-VIVO 15™ containing no serum. Cells remaining in the wells were adherent cells. These cells were cultured by adding 2 ml of X-VIVO 15™ to each well plus GM-CSF and IL-4 at final concentrations of 50 ng/ml and 1000 U/ml or the following: cAMP at 0.5 mM, dibutyryl cAMP at 0.1 mM, NaF at 0.25 mM, theophylline at 0.5 mM, PGE at 0.1 mM, Vitamin D3 at 2.5 uM, Vitamin E at 0.1%, Retinoic Acid at 10^−6 M, PMA at 1 pM, Linoleic Acid at 5 ug/ml, or Ca^++ Ionophore at 10 mM. Furthermore, cells were also cultured with the above non-cytokine additives plus GM-CSF at 50 ng/ml. Cells were cultured in a 5% CO2, ambient O2, 37° C. humidified incubator for 7 days.
(§2) Results: In the set of experiments using plastic adherent cells grown in polystyrene tissue culture plates, a Day 0 analysis of the cells was not performed. However, these cultures were analyzed for the presence of DC on days 4 and 7. Analysis perfomed were cell counts, viability via propidium iodide, morphology under Wright-Geimsa staining, and immunohistochemical staining using an anti-S100 antibody.

adherent PBMNC [2] = assay: DC morphology (Wright-Geimsa) of plastic adherent cells cultured with non-cytokine additives
Description: (§3) Cytofunnels were attached to microscope slides. 50,000 to 100,000 cells were removed from each culture and resuspended in approximately 100 to 200 ul of PBS-CMF. Slides were placed in the Cytospin® centrifuge and spun at 100 rpm for 4 min. Cytofunnels were removed from the slides and the slides were air dried for 1 minute. Ten drops of Wright-Geimsa stain were placed onto each slide and allowed to fix for 1 to 2 minutes. Ten drops of water were added to each slide and allowed to sit for 2 to 4 minutes. The slides were rinsed and air dried.
(§4) Reading of Cytospin Slides: Slides were read under phase contrast microscopy, 40× and 60× oil magnification. One hundred cells were identified and characterized morphologically as either dendritic cells or non-dendritic cells (lymphocytes and monocyte, or CD34+-derived cells in those cases). Digital images were taken using a color monitor and color video printer.
as §1
(§5) Cytospin slide preparation, Wright-Geimsa and immunohistochemical staining of the cultured cells were conducted as described in Example 1 and 2 above. Mixed lymphocyte reactions (MLR's) were setup using T cells (responders) and dendritic cell enriched cultures (stimulators) from bulk PBMNC cultures, as described above in Example 1.
as §2

Bulk PBMNC [3] = assay: S100+ cells in bulk PBMNC cultures with non-cytokine additives; details: day 7; average
Description: Immunocytochemical staining: PBS (phosphate buffered saline) was made by dissolving 5 PBS tablets into 1000 ml millipore water. Cytospin slides were soaked in PBS. Endogenous peroxidase activity was blocked by treating slides with hydrogen peroxide/PBS (2 ml 30% H2O2+30 ml PBS) for 10 min. Slides were rinsed with PBS one time. Non-specific binding sites were blocked by incubating with normal serum matching source of secondary antibody (i.e. if secondary antibody is biotinylated goat-anti-mouse, used normal goat serum) at room temp. for 15 min. in a humidified environment. Excess serum was shaken from slides and placed 100 ul of primary antibody on slide, making sure cells are covered with liquid and incubated in humidified environment, room temp, for one hour. Negative control slides were incubated with normal serum for this hour. Slides were rinsed 3 times with PBS. Slides were incubated with biotinylated antibody reactive against the primary antibody (i.e. if primary antibody is mouse-anti-human, use a biotinylated goat-anti-mouse antibody) for 1 hour in humidity. Slides were rinsed 3 times with PBS. Slides were incubated with streptavidin-peroxidase, 2 drops/slide, for 30 min. in humidity. Slides were rinsed 3 times with PBS.
Chromagen solution was made with 5 ml millipore water+2 drops of chromagen buffer+1 drop of concentrated chromagen+1 drop of substrate, and 4-5 drops were added to each slide. […] Slides were counterstained with hematoxylin for about 5 min, or until cell nuclei were stained purple. Cells were rinsed with tap water and allowed to air dry. Slides were covered with crystal mount and oven dried at 80 degrees for 15 min. Slides were allowed to cool, then coversliped with mounting medium.
(§6) Culture of Bulk PBMNC: PBMNC cells were cultured in X-VIVO 15™ supplemented with 2 mM L- glutamine. Cultures were initiated at 5×^05 cells/ml in PL2417 gas-permeable containers (20 ml). GM-CSF and IL-4 were added to the cultures at final concentrations of 50 ng/ml and 1000 U/ml or non-cytokine additives such as Vitamin D3 at 2.5 uM, Vitamin E at 0.1%, Linoleic Acid at 5 ug/ml, or Ca++ Ionophore at 10 mM. Addition and subtraction of cells, media, and growth factors to and from PL2417 gas-permeable containers was accomplished by spiking a Sampling Site Coupler into the sample port of the container followed by use of syringes and needles. Cells were cultured in a 5% CO2, ambient O2, 37° C. humidified incubator for 7 days.
as §5
The S100 protein is a nerve cell protein that has been associated with dendritic cells. In Table 47, at day 7 of culture, the highest percent of S100+ cells was present in the GM-CSF/IL-4 culture (13%).

Bulk PBMNC [4] = assay: Morphologically identified dendritic cells in bulk PBMNC cultures with non-cytokine additives
Description: as §3, §4, §6, §5

In the case of `CCCCC/C=C\C/C=C\CCCCCCCC(=O)O` [Linoleic Acid], the “TOTAL CELLS” value (adherent PBMNC [1]; Day 4, with GM-CSF present) is reported as 1.41E + 05, the “% VIABLE” value (adherent PBMNC [1]; Day 4, with GM-CSF present) is reported as 96.07% and the “TOTAL CELLS” value (adherent PBMNC [1]; Day 4, without GM-CSF) is reported as 1.99E + 05. The “% VIABLE” value (adherent PBMNC [1]; Day 4, without GM-CSF) was 78.84%, the “TOTAL CELLS” value (adherent PBMNC [1]; Day 7, with GM-CSF present) was 7.85E + 05 and the “% VIABLE” value (adherent PBMNC [1]; Day 7, with GM-CSF present) was 82.63%. The “TOTAL CELLS” value (adherent PBMNC [1]; Day 7, without GM-CSF) was 1.19E + 05, the “% VIABLE” value (adherent PBMNC [1]; Day 7, without GM-CSF) was 82.69% and the “% DC” value (adherent PBMNC [2]; Day 4, with GM-CSF present) was 8.00%. For the same compound, the “% DC” value (adherent PBMNC [2]; Day 4, without GM-CSF) was 3.00%, the “% DC” value (adherent PBMNC [2]; Day 7, with GM-CSF present) was 9.00% and the “% DC” value (adherent PBMNC [2]; Day 7, without GM-CSF) was 6.00%. The “morphologically identified DC” value (adherent PBMNC [2]; day 7, without GM-CSF added to additives) was “next highest percentages”, the “percent of S100+ cells” value (Bulk PBMNC [3]) was “equivalent average percentages” and the “% DC” value (Bulk PBMNC [4]; Day 7) was 5.00%. The “TOTAL # OF DC” value (Bulk PBMNC [4]; Day 7, projected in culture) was 4.63E+05 and the “fold fewer DC (average total number projected in culture) than GM-CSF/IL-4 cultures” value (Bulk PBMNC [4]; day 7) was “approximately 4 fold”.
